Laboratory results reported in US20110245192A1, “NEW ACTIVATORS FOR TREATING AND/OR PREVENTING DISEASES OR MEDICAL CONDITIONS WHICH BENEFIT FROM AN INCREASED TRANSPORT OF HYALURONAN ACROSS A LIPID BILAYER” (priority 2008, published 2011).

Tested on: hyaluronan transport/export in fibroblasts
Experiment: Assay for hyaluronan transport/export activators in fibroblast cell culture (hyaluronan in culture medium by ELISA)
Type: cell-based
Conditions: 2 days at 37° C.
Protocol: Compound 89 activates 4,7fold, while compound 101 activates 2,4fold. The “activatory capability” as described herein is expressed as the ratio of hyaluronan exported in the presence and absence of the compound. Methods to determine the hyaluronan transport are disclosed herein, and are also disclosed in great detail in WO2005/013947.
Trypsinised fibroblasts were suspended in Dulbeccos medium at 10^5 cells/ml and 100 μl aliquots were transferred to a 96 well microtiter plate. The first row received 200 μl of the suspension and 20 μl of the activators of the invention dissolved in phosphate buffered saline at concentrations of 4 mM. A serial dilution of the activators was established by transfer of 100 μl aliquots from the first row to the following rows. All experiments were performed in duplicates. […] The cells were incubated for 2 days at 37° C. and aliquots (5 and 20 μl) of the culture medium were used for measurement of the hyaluronan concentration in the cell culture medium by an ELISA [125]. […] The adsorption was read at 490 nm. The concentrations in the samples were calculated from a logarithmic regression curve of the hyaluronan standard solutions. […]

SMILES	activatory capability: ratio of hyaluronan exported in the presence and absence of the compound
CC(=O)Nc1c(O)cc(O)cc1Oc1ccc(N)cc1C(=O)O [Compound 89]	4,7 fold
CC(=O)Nc1c(O)cccc1Oc1ccc(N)cc1C(=O)O [Compound 101]	2,4 fold
